{
  "source": "patent US20100113430A1",
  "about": "“THIOXANTHENE DERIVATES USEFUL TO TREAT INFECTIOUS DISEASES” (BKG PHARMA APS, priority 2007, published 2010)",
  "format_in_all_cases": "cell-based",
  "key": {"[1]": {"tested_on": "Candida glabrata clinical isolates", "experiment": "MIC (90% growth inhibition), broth microdilution NCCLS M27-A, Candida glabrata", "experimental": "Cell growth was tested using the Minimal Inhibitory Concentration (MIC) susceptibility tests by use of the microdilution broth method in accordance to the NCCLS Guidelines (NCCLS Guidelines, Methods for Dilution Antimicrobial Susceptibility Tests for Bacteria That Grow Aerobically; Approved Standard, Sixth Edition, Volume 23; Number 2). The minimum inhibitory concentration (MIC), is defined ad the lowest concentration of drug which inhibits growth of the test organism, in the sense that no visible growth is detected (total inhibition of growth). In example 2 MIC of the compounds used on fungal microorganisms was determined from the IC90 measurements according to NCCLS Guidelines. […]\n4 clinical isolates of Candida sp. (including 3 fluconazole resistant isolates) were subcultured for 24 h on Sabouraud glucose agar before susceptibility testing. Broth microdilution tests were performed according to NCCLS document M27-A (Ref: National Committee for Clinical Laboratory Standards. (1997). Reference Method for Broth Dilution Antifungal Susceptibility Testing of Yeasts: Approved Standard M27-A. NCCLS, Wayne, Pa.). Microtitre plates were read spectrophotometrically at 530 nm, after mixing the wells by pipetting to resuspend yeast sediments. In this experiment, the MIC was defined as the lowest drug dilution resulting in 90% growth inhibition."}, "[2]": {"tested_on": "Fluconazole Resistant Candida albicans clinical isolate", "experiment": "MIC (80% growth inhibition), broth microdilution NCCLS M27-A, fluconazole resistant Candida albicans", "conditions": "fluconazole resistant Candida albicans; MIC = 80% growth inhibition", "experimental": "The antimicrobial effect of N-dealkyl-trans-clopenthixol and N-dealkyl-trans-flupenthixol was studied by exposing cells to 0-8 μg/ml of the compounds in two-fold dilutions. Each experiment was repeated in triple duplicate. MIC values represent the mean values of two separate experiments.\nClinical Isolate of A Fluconazole Resistant Candida albicans from a Patient with Candidemia.\nThe isolates were subcultured for 24 h on Sabouraud glucose agar before susceptibility testing. Broth microdilution tests were performed according to NCCLS document M27-A (Ref: National Commitee for Clinical Laboratory Standards. (1997). Reference Method for Broth Dilution Antifungal Susceptibility Testing of Yeasts: Approved Standard M27-A. NCCLS, Wayne, Pa.)\nMicrotitre plates were read spectrophotometrically at 530 nm, after mixing the wells by pipetting to resuspend yeast sediments. The MIC was defined as the lowest drug dilution resulting in 80% growth inhibition."}, "[3]": {"tested_on": "Enterococcus faecium resistant clinical isolates", "experiment": "MIC/IC90, resistant clinical isolates of Enterococcus faecium", "experimental": "(§1) Cell growth was tested using the Minimal Inhibitory Concentration (MIC) susceptibility tests by use of the microdilution broth method in accordance to the NCCLS Guidelines (NCCLS Guidelines, Methods for Dilution Antimicrobial Susceptibility Tests for Bacteria That Grow Aerobically; Approved Standard, Sixth Edition, Volume 23; Number 2). The minimum inhibitory concentration (MIC), is defined ad the lowest concentration of drug which inhibits growth of the test organism, in the sense that no visible growth is detected (total inhibition of growth). In example 2 MIC of the compounds used on fungal microorganisms was determined from the IC90 measurements according to NCCLS Guidelines.\n(§2) A log phase culture of bacteria was diluted with fresh pre-warmed Mueller-Hinton medium and adjusted to a defined OD at 600 nm in order to give a final concentration of 1×10^4-5 bacteria/ml medium. The bacterial culture was transferred to microtiter-plates and culture was added to each well. Drug was added to the bacterial culture in the wells as two-fold dilution series of drug in order to give final concentrations ranging from 0.03 to 128 μg/ml. Trays were incubated at 37° C. by shaking in a robot analyzer, PowerWavex, software KC^4′ Kebo.Lab, Copenhagen, for 16 h and optical densities were measured at 600 nm during the incubation time in order to record growth curves. Wells containing bacterial culture without drug were used as controls to ensure correct inoculum size and bacterial growth during the incubation. Cultures were tested in order to detect contaminations. Each experiment was repeated in triplicate. MIC values represent the mean values of two separate triplicate experiments. Intra- and interassay variation was <5%.\nInhibition 90 (IC90) is defined as: OD responding a 90% growth inhibition. […]\nClinically relevant isolates were cultured and assayed as described above."}, "[4]": {"tested_on": "Gram negative sp.", "experiment": "MIC/IC90 broad spectrum, Gram negative sp.", "conditions": "25 strains, 20 resistant", "experimental": "as §1, §2\n(§3) Inhibition 90 (IC90) is defined as: OD responding a 90% growth inhibition.\n(§4) A broad spectrum of bacteria were cultured and assayed as described above for susceptibility towards N-dealkyl-clopenthixol."}, "[5]": {"tested_on": "resistant and susceptible clinical bacterial isolates", "experiment": "Susceptibility of resistant versus susceptible bacterial isolates (Example 3)", "conditions": "isolates of Tables 3a and 3b", "experimental": "as §1\nas §2, with “Wells containing bacterial culture without drug were used as controls to ensure correct inoculum size and bacterial growth during the incubation. Cultures were tested in order to detect contaminations. Each experiment was repeated in triplicate. MIC values represent the mean values of two separate triplicate experiments. Intra- and interassay variation was <5%.” left out"}, "[6]": {"tested_on": "Streptococci", "experiment": "MIC/IC90 broad spectrum, Streptococci", "conditions": "30 strains, 20 resistant", "experimental": "as §1, §2, §3, §4"}, "[7]": {"conditions": "Enterococcus faecium 16, BLR, CR"}},
  "data": [
    {"compound": "Clc1ccc2c(c1)/C(=C/CCN1CCNCC1)c1ccccc1S2", "note": "[N-dealkyl-trans-clopenthixol, trans-1-(3-(2-chloro-thioxanthen-9-ylidene)propyl)piperazine]", "values": [
      {"measurement": "MIC", "setting": "[1]; strain 2. Candida glabrata FR (fluconazole resistant)", "value": 1, "unit": "µg/mL"},
      {"measurement": "MIC", "setting": "[1]; strain 4. Candida glabrata FR (fluconazole resistant)", "value": 0.5, "unit": "µg/mL"},
      {"measurement": "MIC", "setting": "[1]; strain 5. Candida glabrata", "value": 0.5, "unit": "µg/mL"},
      {"measurement": "MIC", "setting": "[2]", "value": 3, "unit": "µg/mL"},
      {"measurement": "IC90", "setting": "[3]; Enterococcus faecium 11, VanA", "value": 0.6, "unit": "µg/mL"},
      {"measurement": "MIC", "setting": "[3]; Enterococcus faecium 11, VanA", "value": 1, "unit": "µg/mL"},
      {"measurement": "IC90", "setting": "[3]; Enterococcus faecium 12, VanA", "value": 0.6, "unit": "µg/mL"},
      {"measurement": "MIC", "setting": "[3]; Enterococcus faecium 12, VanA", "value": 1, "unit": "µg/mL"},
      {"measurement": "IC90", "setting": "[3]; Enterococcus faecium 13, VanB", "value": 0.5, "unit": "µg/mL"},
      {"measurement": "MIC", "setting": "[3]; Enterococcus faecium 13, VanB", "value": 1, "unit": "µg/mL"},
      {"measurement": "IC90", "setting": "[3]; Enterococcus faecium 14, HLAR", "value": 0.5, "unit": "µg/mL"},
      {"measurement": "MIC", "setting": "[3]; Enterococcus faecium 14, HLAR", "value": 1, "unit": "µg/mL"},
      {"measurement": "IC90", "setting": "[3]; Enterococcus faecium 15, HLAR", "value": 0.5, "unit": "µg/mL"},
      {"measurement": "MIC", "setting": "[3]; Enterococcus faecium 15, HLAR", "value": 1, "unit": "µg/mL"},
      {"measurement": "IC90", "setting": "[3]; [7]", "value": 0.6, "unit": "µg/mL"},
      {"measurement": "MIC", "setting": "[3]; [7]", "value": 1, "unit": "µg/mL"},
      {"measurement": "IC90", "setting": "[3]; Enterococcus faecium 17, VanB", "value": 0.5, "unit": "µg/mL"},
      {"measurement": "MIC", "setting": "[3]; Enterococcus faecium 17, VanB", "value": 1, "unit": "µg/mL"},
      {"measurement": "IC90", "setting": "[3]; Enterococcus faecium 18, VanB", "value": 0.6, "unit": "µg/mL"},
      {"measurement": "MIC", "setting": "[3]; Enterococcus faecium 18, VanB", "value": 1, "unit": "µg/mL"},
      {"measurement": "IC90", "setting": "[3]; Enterococcus faecium 19, VanB", "value": 0.6, "unit": "µg/mL"},
      {"measurement": "MIC", "setting": "[3]; Enterococcus faecium 19, VanB", "value": 1, "unit": "µg/mL"},
      {"measurement": "MIC", "setting": "[3]; Enterococcus faecium multiresistant isolate, Example 4", "value": 0.5, "unit": "µg/mL"},
      {"measurement": "MIC (mean)", "setting": "[4]", "value": 2, "unit": "µg/mL"},
      {"measurement": "MIC range", "setting": "[4]", "value": "0.5 to 2", "unit": "µg/mL"},
      {"measurement": "difference in susceptibility between resistant and susceptible isolates", "setting": "[5]", "value": "No difference in susceptibility"},
      {"measurement": "IC90 (mean)", "setting": "[6]", "value": 0.5, "unit": "µg/mL"},
      {"measurement": "MIC (mean)", "setting": "[6]", "value": 1, "unit": "µg/mL"},
      {"measurement": "MIC range", "setting": "[6]", "value": "0.5 to 2", "unit": "µg/mL"}
    ]}
  ]
}
